# Columns and labels:
# SF3B1 = SF3B1 (Homo sapiens, UniProt O75533+Q7RTV0); conditions: cited from earlier work
# [1] = system: Wild type MCA205 sarcoma cells; test: Tumor challenge: wild type MCA205 tumors in immunocompetent C57BL/6 mice; assay type: in vivo, mouse
# Protocol: (§1) Wild type MCA205 sarcoma cells or MCA205 sarcoma cells expressing the globin-SL8-intron construct (MCA205 globin-SL8-intron) were subcutaneously inoculated into the flank of immunocompetent C57BL/6 mice subsequently injected intraperitoneally with 20 mg/kg or 40 mg/kg of Madra.HCl at day 4, 7, 10 and 14 post tumor inoculation. Tumor size was assessed every 3 to 4 days until the established ethical endpoints were reached. The panel C represents the growth curve of MCA205 sarcoma cells expressing the globin-SL8-intron construct (MCA205 globin-SL8-intron), the panel D represents the tumor size at day 25. The panel E represents the growth curve of Wild type MCA205 sarcoma cells (MCA205 WT), the panel F represents the tumor size at day 21. Data are given as mean±SEM. *p<0.05, **p<0.01 (ANOVA with Tukey's multiple comparison test comparing all groups).
# (§2) Wild type MCA205 sarcoma cells or MCA205 sarcoma cells expressing the globin-SL8-intron construct (MCA205 globin-SL8-intron) were subcutaneously inoculated into the flank of immunocompetent C57BL/6 mice subsequently injected intraperitoneally with 20 mg/kg of EYP59 at day 4, 7, 10 and 14 post tumor inoculation. Tumor size was assessed every 3 to 4 days until the established ethical endpoints were reached (A). The upper panel B represents the growth curve of MCA205 sarcoma cells expressing the globin-SL8-intron construct (MCA205 globin-SL8-intron), the lower panel B represents the tumor size at day 23. The upper panel C represents the growth curve of Wild type MCA205 sarcoma cells (MCA205 WT), the lower panel C represents the tumor size at day 19. The panel D represents the growth curve of Wild type MCA205 sarcoma cells (MCA205 WT) in immunodeficient nu/nu mice with the same settings as previously described for the immunocompetent mice. Data are given as mean±SEM. *p<0.05, **p<0.01 (ANOVA with Tukey's multiple comparison test comparing all groups).
# Wild type MCA205 sarcoma cells were subcutaneously inoculated into the flank of immunocompetent C57BL/6 mice subsequently injected intratumorally with 2.5 mg/kg of EYP59 at day 4, 7, 10 and 14 post tumor inoculation or intravenously with 5 mg/kg of EYP59 at day 4, 7, 10 and 14 post tumor inoculation. The upper panel A represents the growth curve of wild type MCA205 sarcoma cells, the lower panel A represents the tumor size at day 21. The upper panel B represents the growth curve of wild type MCA205 sarcoma cell, the lower panel B represents the tumor size at day 25. Data are given as mean±SEM. *p<0.05, **p<0.01 (ANOVA with Tukey's multiple comparison test comparing all groups).
# (§3) C57Bl/6J female mice are obtained from Harlan Laboratories Ltd, Switzerland. 7 week-old mice are injected subcutaneously into the right flank with 1.10^5 MCA205 sarcoma or B16F10 melanoma cells or 1.5.10^5 MCA205 globin-SL8-intron or B16F10 globin-SL8-intron cells. Sarcoma cells are injected in 100 μL sterile PBS while melanoma cells are injected in 50:50 PBS:Matrigel to prevent tumor cell dissemination. Madra.HCl is injected 4, 7, 10 and 14 days post tumor inoculation, in 100 μL H2O+[…] (2-Hydroxypropyl)-β-cyclodextrin (w/v). In the same manner EYP59 (compound 7) is injected 4, 7, 10 and 14 days post tumor inoculation, in 100 μL H2O. Area of the tumor is recorded every 3 to 4 days until the tumor reaches the ethical end points. […] Results are expressed as mean±SEM. *p<0.05, **P<0.01, ***P<0.001 (ANOVA with Tukey's multiple comparison test comparing all groups).
# [2] = system: Wild type MCA205 sarcoma cells; test: Tumor challenge: wild type MCA205 tumors in immunodeficient nu/nu mice; assay type: in vivo, mouse; conditions: 20 mg/kg
# Protocol: as §2
# In order to assess the requirement of the immune response for this effect, inventors tested the impact of 20 mg/kg EYP59 treatment in immunodeficient nu/nu mice with the same settings as previously described and observed that it has no effect on the tumor growth (FIG. 7D).
# [3] = system: B16F10 melanoma cells expressing the intron-derived SL8 antigen; test: T-cell assay: B3Z specific T-cell activation by B16F10 cells expressing the intron-derived SL8 antigen; assay type: cell-based, mouse
# Protocol: (§4) MCA205 mouse sarcoma cell line is cultured at 37° C. under 5% CO2 in RPMI 1640 medium (Life Technologies) in the presence of 1% glutamine, 1% sodium pyruvate, 1% non-essential amino-acids, 1% penicillin/streptomycin and 10% FBS (Life Technologies). B16F10 mouse melanoma cell line is cultured at 37° C. under 5% CO2 in DMEM medium (Life Technologies) containing 1% glutamine, 1% penicillin/streptomycin and 10% FCS under standard conditions. Stable MCA205-Globin-SL8-intron cell line are cultured under the same condition as MCA205 cell line with additional 500 μg/ml G418 (Life Technologies) for selection. Stable B16F10-Globin-SL8-intron cell line are cultured under the same condition as B16F10 cell line with additional 500 μg/ml G418 (Life Technologies) for selection. The SL8/Kb-specific (B3Z) T-cell reporter hybridoma are cultured at 37° C. under 5% CO2 in RPMI 1640 medium (Life Technologies) in the presence of 1% L-glutamine, 1% penicillin/streptomycin, 50 μM β-mercaptoéthanol and 10% FCS.
# (§5) MCA205 and B16F10 mouse cell lines are transfected with the plasmid YFP-Globin-SL8-intron or with the PCDNA3 empty plasmid (negative control) with the transfection reagent jetPRIME (Ozyme) or GeneJuice (Millipore) respectively according to each manufacturer protocol. Twenty-four hours after transfection, cells are treated with different doses of Madrasin (Sigma SML 1409), Madra.HCl (3·HCl) or the different compounds herein cited. Cells are then washed three times with PBS 1× and 5.10^4 tumor cells are co-cultured with 1.10^5 B3Z hybridoma in a 96-well plate. In positive control wells, 4 μg/ml of synthetic peptide SL8 is added. Cells are then incubated overnight at 37° C. with 5% CO2. The plate is centrifuged at 1200 rpm for 5 min, cells are washed twice with PBS 1× and lysed for 5 min at 4° C. under shaking in 0.2% TritonX-100, 0.2% DTT, 0.5M K2HPO4, 0.5M KH2PO4. The lysate is centrifuged at 3000 rpm for 10 min and the supernatant is transferred to a 96-well optiplate (OptiPlaque-96, PerkinElmer). A revelation buffer containing 10 mM MgCl2, 11.2 mM β-mercaptoethanol, 0.0015% IGEPAL® CA-630 and 40 μM 4-Methylumbelliferyl β-D-Galactopyranoside (MUG) in PBS is added and the plate is incubated at room temperature for 3 hours. Finally, the β-galactosidase activity is measured using the FLUOstar OPTIMA (BMG LABTECH Gmbh, 30 Offenburg, Germany). Results are expressed as mean±SEM. *P<0.05, **P<0.01, ***P<0.001 (unpaired student t test).
# [4] = system: MCA205 sarcoma cells expressing the intron-derived SL8 antigen; test: T-cell assay: B3Z specific T-cell activation by MCA205 cells expressing the intron-derived SL8 antigen; assay type: cell-based, mouse
# Protocol: as §4, §5
# [5] = system: MCA205 sarcoma cells expressing the globin-SL8-intron construct; test: Tumor challenge: MCA205 globin-SL8-intron tumors in immunocompetent C57BL/6 mice; assay type: in vivo, mouse; conditions: for survivors: 120 days after tumor inoculation
# Protocol: as §1, §2, §3
# B16F10 WT cells = test: Re-challenge of tumor-free mice at day 100 with B16F10 WT cells; assay type: in vivo, mouse; conditions: mice with complete tumor regression after treatment, re-challenged 100 days later, left flank
# Source text: (§6) Growth curve of MCA205 globin-SL8-intron cells and B16F10 WT cells inoculated at day 100 into the right and the left flank, respectively, of C57BL/6 mice which experienced complete tumor regression after treatment with Madra.HCl.
# (§7) Finally, mice which were inoculated with MCA205 tumor cells expressing the Globin-intron-SL8 construct, and that experienced complete tumor regression after treatment with Madra.HCl as described above were re-challenged 100 days later with MCA205 tumor cells expressing the Globin-intron-SL8 construct on the right flank and with B16F10 tumor cells on the left flank.
# Solubility in water = assay type: physicochemical
# [6] = system: MCA205 globin-SL8-intron cells; test: Re-challenge of tumor-free mice at day 100 with MCA205 globin-SL8-intron cells; assay type: in vivo, mouse; conditions: mice with complete tumor regression after treatment, re-challenged 100 days later, right flank
# Source text: as §6, §7
smiles,measurement,setting,value
CC[C@H](O)[C@@H](C)[C@H]1O[C@@H]1C[C@@](C)(O)/C=C/C=C(\C)[C@H]1OC(=O)C[C@H](O)CC[C@@](C)(O)[C@@H](OC(=O)N2CCN(C3CCCCCC3)CC2)/C=C/[C@@H]1C [E7107],outcome of testing in human,SF3B1,stopped because of problems of toxicity
"Cc1nc(Nc2nc(C)c3ccc(OP(=O)(O)O)cc3n2)[nH]c(=O)c1C [EYP59, Sodium 2-((4,5-dimethyl-6-oxo-1,6-dihydropyrimidin-2-yl)amino)-4-methylquinazolin-7-yl Phosphate]",reduction of tumor growth,"[1]; 2.5 mg/kg intratumorally, day 21 after challenge",75%
same,reduction of tumor growth,"[1]; 5 mg/kg intravenously, day 25 after challenge",80%
same,reduction of tumor growth,"[1]; 20 mg/kg intraperitoneally, day 19 after challenge",70%
same,effect on the tumor growth,[2],no effect
same,PTP-SL8 presentation (B3Z T-cell activation),"[3]; B16F10, 60 μM, O/N",increase
same,PTP-SL8 presentation (B3Z T-cell activation),"[4]; MCA205, 60 μM, O/N",increase
same,reduction of tumor growth,"[5]; 20 mg/kg intraperitoneally, day 23 after challenge",85%
"COc1ccc2c(C)nc(Nc3nc(C)c(C)c(=O)[nH]3)nc2c1.Cl [Madra.HCl, Madrasin hydrochloride]",reduction of tumor growth,"[1]; 20 mg/kg intraperitoneally, day 21 after challenge",40%
same,reduction of tumor growth,"[1]; 40 mg/kg intraperitoneally, day 21 after challenge",40%
same,tumor growth after re-challenge,B16F10 WT cells,grew over time
same,solubility in water,Solubility in water,able to be dissolved in water
same,tumor growth after re-challenge,[6],did not grow
same,PTPs-dependent antigen presentation (B3Z T-cell activation),"[3]; B16F10, 5 μM or 10 μM, dose dependent",increase
same,PTPs-dependent antigen presentation (B3Z T-cell activation),"[4]; MCA205, 5 μM or 10 μM, dose dependent",increase
same,survivors,[5]; 20 mg/kg intraperitoneally,around 15%
same,reduction of tumor growth,"[5]; 20 mg/kg intraperitoneally, day 27 after challenge",50%
same,survivors,[5]; 40 mg/kg intraperitoneally,around 25%
